Reference: patent US11878973B2, “Bicyclic compounds and their uses” (NOVARTIS AG, priority 2021, dated 2024)
Where two headings read alike, the source gives them in different places.

Assays:
WRN helicase = WRN helicase (Homo sapiens (Human), UniProt Q14191); test: In vitro enzymatic activity assay on WRN helicase (DNA dependent ATPase assay, ADP-Glo); assay type: biochemical; details: geometric means of at least 2 determinations; read-out: WRN ATPase Activity (IC50)
How it was run: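 The WRN helicase core (aa N517-P1238), 10 nM, hydrolysed 300 µM ATP in the presence of 0.2 nM FLAP26 DNA (Tris pH 7.5, 2 mM MgCl2, 50 mM NaCl) for 30 min at room temperature. ADP formed was quantified by ADP-Glo luminescence.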

SW48 cells = test: Proliferation assay SW48 (CellTiterGlo, 96 hours)
DLD1-WRN-KO cells = test: Proliferation assay DLD1-WRN-KO (CellTiterGlo, 96 hours; off-target effects); details: read-out: Proliferation Assay DLD1-WRN-KO (GI50)
[1] = read-out: Proliferation Assay SW48 (GI50), SW48 cell line, geometric means of at least 2 determinations
[2] = DLD1-WRN-KO cell line, geometric means of at least 2 determinations
[3] = Homo sapiens, SW48, read-out: Proliferation Assay SW48 (GI50)

WRN helicase, sequence (Q14191 517-1238): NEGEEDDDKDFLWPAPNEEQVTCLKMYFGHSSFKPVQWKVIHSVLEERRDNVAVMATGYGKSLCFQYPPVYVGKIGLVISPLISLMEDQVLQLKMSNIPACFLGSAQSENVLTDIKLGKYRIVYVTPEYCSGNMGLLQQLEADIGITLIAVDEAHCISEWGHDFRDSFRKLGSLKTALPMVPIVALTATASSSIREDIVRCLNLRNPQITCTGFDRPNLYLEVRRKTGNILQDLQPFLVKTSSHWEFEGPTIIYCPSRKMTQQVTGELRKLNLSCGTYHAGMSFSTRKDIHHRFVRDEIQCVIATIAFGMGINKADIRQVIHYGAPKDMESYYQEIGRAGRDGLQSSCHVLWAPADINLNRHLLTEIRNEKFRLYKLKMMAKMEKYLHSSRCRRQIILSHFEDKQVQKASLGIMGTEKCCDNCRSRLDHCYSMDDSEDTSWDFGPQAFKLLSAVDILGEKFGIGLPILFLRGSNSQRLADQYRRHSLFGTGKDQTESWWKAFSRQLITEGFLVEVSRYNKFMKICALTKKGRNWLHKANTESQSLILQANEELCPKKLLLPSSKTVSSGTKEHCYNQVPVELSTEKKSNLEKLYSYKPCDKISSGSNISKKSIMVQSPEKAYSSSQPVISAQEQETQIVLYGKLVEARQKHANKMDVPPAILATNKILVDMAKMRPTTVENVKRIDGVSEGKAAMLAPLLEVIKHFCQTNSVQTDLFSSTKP

| SMILES | IC50 (WRN helicase) [µM] | GI50 (SW48 cells; [1]) [µM] | GI50 (DLD1-WRN-KO cells; [2]) [µM] | GI50 (SW48 cells; [3]) [µM] | GI50 (DLD1-WRN-KO cells; Homo sapiens) [µM] |
| --- | --- | --- | --- | --- | --- |
| CCc1c(N2CCN(C(=O)c3ncccc3O)CC2)c(=O)n2nc(C3=CC[C@H](OC)CC3)nc2n1CC(=O)Nc1ccc(C(F)(F)F)cc1 (single isomer, unassigned) [Example 81a, ((R)-2-(5-ethyl-6-(4-(3-hydroxypicolinoyl)piperazin-1-yl)-2-(4-methoxycyclohex-1-en-1-yl)-7-oxo-[1,2,4]triazolo[1,5-a]pyrimidin-4(7H)-yl)-N-(4-(trifluoromethyl)phenyl)acetamide or ((S)-2-(5-ethyl-6-(4-(3-hydroxypicolinoyl)piperazin-1-yl)-2-(4-methoxycyclohex-1-en-1-yl)-7-oxo-[1,2,4]triazolo[1,5-a]pyrimidin-4(7H)-yl)-N-(4-(trifluoromethyl)phenyl)acetamide] | 0.04 | 0.07 | > 10 |  |  |
| CCc1c(N2CCN(C(=O)c3nccc(OC(F)(F)F)c3O)CC2)c(=O)n2nc(C3=CCOCC3)nc2n1CC(=O)Nc1ccc(C(F)(F)F)cc1Cl [Example 98, N-(2-chloro-4-(trifluoromethyl)phenyl)-2-(2-(3,6-dihydro-2H-pyran-4-yl)-5-ethyl-6-(4-(3-hydroxy-4-(trifluoromethoxy)picolinoyl)piperazin-1-yl)-7-oxo-[1,2,4]triazolo[1,5-a]pyrimidin-4(7H)-yl)acetamide] | 0.04 |  |  | 0.14 | > 10 |
| CCc1c(N2CCN(C(=O)c3nccc(Cl)c3O)CC2)c(=O)n2nc(N3CCOCC3)nc2n1CC(=O)Nc1cc(F)c(C(F)(F)F)cc1C [Example 6, 2-(6-(4-(4-chloro-3-hydroxypicolinoyl)piperazin-1-yl)-5-ethyl-2-morpholino-7-oxo-[1,2,4]triazolo[1,5-a]pyrimidin-4(7H)-yl)-N-(5-fluoro-2-methyl-4-(trifluoromethyl)phenyl)acetamide] | 0.07 |  |  | 0.27 | > 10 |
| CCc1c(N2CCN(C(=O)c3ncnc(C)c3O)CC2)c(=O)n2nc(C3=CCCCO3)nc2n1CC(=O)Nc1ccc(C(F)(F)F)nc1C [Example 31, 2-(2-(3,4-dihydro-2H-pyran-6-yl)-5-ethyl-6-(4-(5-hydroxy-6-methylpyrimidine-4-carbonyl)piperazin-1-yl)-7-oxo-[1,2,4]triazolo[1,5-a]pyrimidin-4(7H)-yl)-N-(2-methyl-6-(trifluoromethyl)pyridin-3-yl)acetamide] | 0.23 |  |  | 0.32 | > 10 |
| CCc1c(N2CCN(C(=O)c3ncnc(C)c3O)[C@H](C)C2)c(=O)n2nc(C3=CCOCC3)nc2n1CC(=O)Nc1ccc(C(F)(F)F)cc1Cl [Example 86, (R)—N-(2-chloro-4-(trifluoromethyl)phenyl)-2-(2-(3,6-dihydro-2H-pyran-4-yl)-5-ethyl-6-(4-(5-hydroxy-6-methylpyrimidine-4-carbonyl)-3-methylpiperazin-1-yl)-7-oxo-[1,2,4]triazolo[1,5-a]pyrimidin-4(7H)-yl)acetamide] | 0.09 |  |  | 0.08 | > 10 |
| CCc1c(N2CCN(C(=O)c3ncccc3O)CC2)c(=O)n2nc(C3=CCCCN3)nc2n1CC(=O)Nc1ccc(C(F)(F)F)cc1C [Example 110, 2-(5-ethyl-6-(4-(3-hydroxypicolinoyl)piperazin-1-yl)-7-oxo-2-(1,4,5,6-tetrahydropyridin-2-yl)-[1,2,4]triazolo[1,5-a]pyrimidin-4(7H)-yl)-N-(2-methyl-4-(trifluoromethyl)phenyl)acetamide] | 0.36 |  |  | 1.21 | > 10 |
| CCc1c(N2CCN(C(=O)c3nccc(C)c3O)CC2)c(=O)n2nc(C3=CCOCC3)nc2n1CC(=O)Nc1ccc(C(F)(F)F)cc1 [Example 75, 2-(2-(3,6-dihydro-2H-pyran-4-yl)-5-ethyl-6-(4-(3-hydroxy-4-methylpicolinoyl)piperazin-1-yl)-7-oxo-[1,2,4]triazolo[1,5-a]pyrimidin-4(7H)-yl)-N-(4-(trifluoromethyl)phenyl)acetamide] | 0.05 |  |  | 0.08 | > 10 |
| CCc1c(N2CCN(C(=O)c3nccc(Cl)c3O)CC2)c(=O)n2nc(C3=CCCCO3)nc2n1CC(=O)Nc1ccc(C(F)(F)F)nc1Cl [Example 30, 2-(6-(4-(4-chloro-3-hydroxypicolinoyl)piperazin-1-yl)-2-(3,4-dihydro-2H-pyran-6-yl)-5-ethyl-7-oxo-[1,2,4]triazolo[1,5-a]pyrimidin-4(7H)-yl)-N-(2-chloro-6-(trifluoromethyl)pyridin-3-yl)acetamide] | 0.14 |  |  | 0.16 | > 10 |
| CCc1c(N2CCN(C(=O)c3ncccc3O)CC2)c(=O)n2nc(N3CCC[C@@H](F)C3)nc2n1CC(=O)Nc1ccc(C(F)(F)F)cc1Cl (single isomer, unassigned) [Example 15a, ((R)—N-(2-chloro-4-(trifluoromethyl)phenyl)-2-(5-ethyl-2-(3-fluoropiperidin-1-yl)-6-(4-(3-hydroxypicolinoyl)piperazin-1-yl)-7-oxo-[1,2,4]triazolo[1,5-a]pyrimidin-4(7H)-yl)acetamide) or ((S)—N-(2-chloro-4-(trifluoromethyl)phenyl)-2-(5-ethyl-2-(3-fluoropiperidin-1-yl)-6-(4-(3-hydroxypicolinoyl)piperazin-1-yl)-7-oxo-[1,2,4]triazolo[1,5-a]pyrimidin-4(7H)-yl)acetamide)] | 0.14 | 0.4 | > 10 |  |  |
| CCc1c(N2CCN(C(=O)c3ncccc3O)CC2)c(=O)n2nc(N3CCC(N(C)CC(F)F)CC3)nc2n1CC(=O)Nc1ccc(C(F)(F)F)nc1Cl [Example 20, N-(2-chloro-6-(trifluoromethyl)pyridin-3-yl)-2-(2-(4-((2,2-difluoroethyl)(methyl)amino)piperidin-1-yl)-5-ethyl-6-(4-(3-hydroxypicolinoyl)piperazin-1-yl)-7-oxo-[1,2,4]triazolo[1,5-a]pyrimidin-4(7H)-yl)acetamide] | 0.31 |  |  | 0.1 | > 10 |
| CCc1c(N2CCN(C(=O)c3nccc(C)c3O)CC2)c(=O)n2nc(C3=CCOCC3)nc2n1CC(=O)Nc1ccc(C(F)(F)F)cc1C [Example 66, 2-(2-(3,6-dihydro-2H-pyran-4-yl)-5-ethyl-6-(4-(3-hydroxy-4-methylpicolinoyl)piperazin-1-yl)-7-oxo-[1,2,4]triazolo[1,5-a]pyrimidin-4(7H)-yl)-N-(2-methyl-4-(trifluoromethyl)phenyl)acetamide] | 0.04 |  |  | 0.09 | > 10 |
| CCc1c(N2CCN(C(=O)c3nccc(Cl)c3O)CC2)c(=O)n2nc(C3=COCCO3)nc2n1CC(=O)Nc1ccc(C(F)(F)F)c(F)c1C [Example 79, 2-(6-(4-(4-chloro-3-hydroxypicolinoyl)piperazin-1-yl)-2-(5,6-dihydro-1,4-dioxin-2-yl)-5-ethyl-7-oxo-[1,2,4]triazolo[1,5-a]pyrimidin-4(7H)-yl)-N-(3-fluoro-2-methyl-4-(trifluoromethyl)phenyl)acetamide] | 0.04 |  |  | 0.5 | > 10 |
| CCc1c(N2CCN(C(=O)c3ncccc3O)[C@H](C)C2)c(=O)n2nc(C3=CCOCC3)nc2n1CC(=O)Nc1ccc(C(F)(F)F)cc1 [Example 71, (R)-2-(2-(3,6-dihydro-2H-pyran-4-yl)-5-ethyl-6-(4-(3-hydroxypicolinoyl)-3-methylpiperazin-1-yl)-7-oxo-[1,2,4]triazolo[1,5-a]pyrimidin-4(7H)-yl)-N-(4-(trifluoromethyl)phenyl)acetamide] | 0.07 |  |  | 0.06 | > 10 |
| CCc1c(N2CCN(C(=O)c3ncnc(C)c3O)CC2)c(=O)n2nc(C3=CCOCC3)nc2n1CC(=O)Nc1cc(F)c(C=O)cc1C [Example 54, 2-(2-(3,6-dihydro-2H-pyran-4-yl)-5-ethyl-6-(4-(5-hydroxy-6-methylpyrimidine-4-carbonyl)piperazin-1-yl)-7-oxo-[1,2,4]triazolo[1,5-a]pyrimidin-4(7H)-yl)-N-(5-fluoro-4-formyl-2-methylphenyl)acetamide] | 1.3 |  |  | 6.01 | > 10 |
| Cc1cc(Cl)ccc1NC(=O)Cn1c(C)c(N2CCN(C(=O)c3ncccc3O)CC2)c(=O)n2nc(C3=CCOCC3)nc12 [Example 105, N-(4-chloro-2-methylphenyl)-2-(2-(3,6-dihydro-2H-pyran-4-yl)-6-(4-(3-hydroxypicolinoyl)piperazin-1-yl)-5-methyl-7-oxo-[1,2,4]triazolo[1,5-a]pyrimidin-4(7H)-yl)acetamide] | 0.2 |  |  | 1.13 | > 10 |
| CCc1c(N2CCN(C(=O)c3ncccc3O)CC2)c(=O)n2nc(N3CCCC3)nc2n1CC(=O)Nc1ccc(C(F)(F)F)nc1Cl [Example 18, N-(2-chloro-6-(trifluoromethyl)pyridin-3-yl)-2-(5-ethyl-6-(4-(3-hydroxypicolinoyl)piperazin-1-yl)-7-oxo-2-(pyrrolidin-1-yl)-[1,2,4]triazolo[1,5-a]pyrimidin-4(7H)-yl)acetamide] | 0.18 |  |  | 0.26 | > 10 |
| CCc1c(N2CCN(C(=O)c3nccc(Cl)c3O)CC2)c(=O)n2nc(C3=CCOCC3)nc2n1CC(=O)Nc1ccc(C(F)(F)F)nc1Cl [Example 46, 2-(6-(4-(4-chloro-3-hydroxypicolinoyl)piperazin-1-yl)-2-(3,6-dihydro-2H-pyran-4-yl)-5-ethyl-7-oxo-[1,2,4]triazolo[1,5-a]pyrimidin-4(7H)-yl)-N-(2-chloro-6-(trifluoromethyl)pyridin-3-yl)acetamide] | 0.11 |  |  | 0.11 | > 10 |
